The record followed here is US6090821A, “Substituted quinolin-2 (1H)-ones useful as HIV reverse transcriptase inhibitors” (E. I. DuPont de Nemours and Company, priority 1999, dated 2000).

This experiment concerns HIV-1 (RF). The experiment in a line: HIV RNA assay: microplate based compound evaluation in HIV-1 infected MT-2 cells. The class given is cell-based. To be noted: Human immunodeficiency virus 1, MT2, 72 h; HIV-1 (RF) infected MT-2 cells, 3 days at 37° C.; virus dilutions selected to give this ddC value (standardization of inoculum); read-out: IC90 value (concentration of compound required to reduce the HIV RNA level by 90%). How it is done:
Plasmid pDAB 72 containing both gag and pol sequences of BH10 (bp 113-1816) cloned into PTZ 19R was prepared according to Erickson-Viitanen et al. AIDS Research and Human Retroviruses 1989, 5, 577. The plasmid was linearized with Bam HI prior to the generation of in vitro RNA transcripts using the Riboprobe Gemini system II kit (Promega) with T7 RNA polymerase. Synthesized RNA was purified by treatment with RNase free DNAse (Promega), phenol-chloroform extraction, and ethanol precipitation. RNA transcripts were dissolved in water, and stored at -70° C. The concentration of RNA was determined from the A260.
Biotinylated capture probes were purified by HPLC after synthesis on an Applied Biosystems (Foster City, Calif.) DNA synthesizer by addition of biotin to the 5' terminal end of the oligonucleotide, using the biotin-phosphoramidite reagent of Cocuzza, Tet. Lett. 1989, 30, 6287. […]
MT-2 and MT-4 cells were maintained in RPMI 1640 supplemented with 5% fetal calf serum (FCS) for MT-2 cells or 10% FCS for MT-4 cells, 2 mM L-glutamine and 50 μg/mL gentamycin, all from Gibco. […] Infectious titers of HIV-1(RF) stocks were 1-3×10^7 PFU (plaque forming units)/mL as measured by plaque assay on MT-2 cells (see below). […]

Values after ≈ are worked out from the molar mass of the structure shown.

Regarding `Nc1ccn([C@H]2CC[C@@H](CO)O2)c(=O)n1` [ddC, 2',3'-dideoxycytidine], the IC90 was found to be 0.2 µg/mL (≈ 0.947 µM).
